From patent US7314863B2, “Cyclic peptidomimetic urokinase receptor antagonists” (Wilex AG, priority 1999, dated 2008)
Positions of bridges follow the written chain, without caps; N, C: chain ends. Non-standard residues stand in square brackets, D forms with d. Residues, ends and D or L forms follow the SMILES beside them. Tic = O=C(O)[C@@H]1Cc2ccccc2CN1; Nle = CCCC[C@H](N)C(=O)O; Orn = NCCC[C@H](N)C(=O)O; Dab = NCC[C@H](N)C(=O)O; Dap = NC[C@H](N)C(=O)O

How the values were obtained:
[1] = tested on: plasmin; experiment: Sensitivity to the tissue protease plasmin (HPLC); format: in vitro ADME; conditions: 0.05 U plasmin, 37° C., 30 min, pH 7.5
Procedure: The sensitivity of peptides against the attack of various proteases of the digestive tract was determined in vitro using purified enzymes under suitable buffer conditions. In general, 10 μg of peptide were incubated in a 100 μl volume with 2 μg of protease at 37° C. for 30 min under the buffer conditions for the activity controls as stated by the manufacturer. After incubation and dilution with 300 μl of H2O, the mixtures were analyzed directly, without prepurification via a precolumn, by HPLC using a 20-60% gradient of H2O, 0.1% trifluoroacetic acid and acetonitrile, 0.1% trifluoroacetic acid.
Pepsin (Sigma, Deisenhofen, Germany) was incubated with peptides in 52 mM HCl. Incubations with trypsin (Sigma) were carried out in 63 mM sodium phosphate pH 7.6. Chymotrypsins α, β, γ,δ (ICN) were incubated in 50 mM CaCl2 and 40 mM Tris/HCl pH 7.8. This was followed by incubating with bacteriae proteinase K in unbuffered water. The positive control used was the *peptide cyclo[19,31]-uPA16-32 which corresponds to the original sequence of the uPA omega loop except for the cysteine bridge. The peptide sensitivity against the tissue protease plasmin (Sigma) was assayed in mixtures with 10 or 5 μg of peptides and 0.05 U of plasmin in 100 μl of 200 mM sodium phosphate pH 7.5 at 37° C. and a 30 min incubation period.
FIG. 5 depicts HPLC profiles of peptide variants prior to (top profiles) and after (bottom profiles) incubation with plasmin. Part (A) of the figure depicts the unaltered lead structure cyclo[21,29][D-Cys^21Cys^29]-uPA21-30 with lysine at position 23, (B) the ornithine-substituted variant cyclo[21,29][D-Cys^21Orn^23Cys^29]-uPA21-30, (C) the diaminobutyric acid-substituted variant cyclo[21,29][D-Cys^21Dab^23Cys^29]-uPA21-30, (D) the diaminopropionic acid-substituted variant cyclo[21,29][D-Cys^21Dap^23Cys^29]-uPA21-30, (E) the norleucine-substituted variant cyclo[21,29][D-Cys^21Nle^23Cys^29]-uPA21-30 and (F) the arginine-substituted variant cyclo[21,29][D-Cys^21Arg^23Cys^29]-uPA21-30. The protease plasmin appears in the bottom profiles in each case at approx. 17.5 min.

[2] = biological target: T1, uPAR (Homo sapiens, UniProt Q03405); experiment: Flow cytometry: inhibition of FITC-pro-uPA binding to uPAR on PMA-stimulated U937 cells; conditions: for IC50: FIG. 1a, read-out: IC50 (inhibition of uPA/uPAR interaction) (converted); for affinity/activity for uPAR lower than that of ATF: relative to ATF
T1 construct: human promyeloid cell line U937 as source for cellular native uPAR; endogenous in cells; host or cells: U937 cells stimulated with PMA
T1 sequence (Q03405 23-305): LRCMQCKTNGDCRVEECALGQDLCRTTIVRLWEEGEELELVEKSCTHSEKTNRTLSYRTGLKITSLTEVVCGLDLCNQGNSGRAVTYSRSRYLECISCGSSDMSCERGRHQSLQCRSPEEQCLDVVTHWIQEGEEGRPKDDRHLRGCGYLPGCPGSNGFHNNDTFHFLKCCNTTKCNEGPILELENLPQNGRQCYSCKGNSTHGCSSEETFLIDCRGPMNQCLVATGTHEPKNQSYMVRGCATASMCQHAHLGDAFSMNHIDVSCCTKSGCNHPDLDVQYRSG
Procedure: The capacity of the synthetic peptides for inhibiting uPA/uPAR interaction was determined using the human promyeloid cell line U937 as source for cellular native uPAR by means of flow cytometry on a FACScan flow cytometer (Becton-Dickinson, Heidelberg, Germany) (Chuchulowski et al., Fibrinolysis 6, Suppl. 4 (1992), 95-102; Magdolen et al., (1996), supra). The U937 cells were stimulated with […] phorbol 12-myristate 13-acetate (PMA) for 48 h. After stimulation with PMA, the U937 cells express considerable amounts of cell surface-associated uPAR.
The stimulated cells were treated with 50 m glycine-HCl, 0.1 NaCl, pH 3.6 at room temperature for 1 min, in order to dissociate endogenous receptor-bound uPA. Subsequently, the acidic buffer was neutralized by 0.5 M HEPES, 100 mM NaCl, pH 7.5. The cells were then immediately washed twice with PBS/0.1% bovine serum albumin (BSA) and centrifuged at 300×g at room temperature for 10 min. The cells were resuspended in PBS/0.1% BSA, adjusted to a concentration of 10^6 cells per ml and incubated simultaneously with 1.6 ng of FITC-conjugated pro-uPA and different amounts of the synthetic peptides at room temperature for 45 min. Prior to analysis, propidium iodide, a fluorescent dye binding specifically double-stranded DNA, was added to each sample, in order to determine the viability of the analyzed U937 cells. Damaged, propidium iodide-labeled cells were excluded from the analysis.

[3] = Peptide stability in heparinized human complete blood (HPLC); format: in vitro ADME; conditions: for stability in heparinized human blood: 37° C., 20.5 h, HPLC of plasma; for distribution between plasma and blood cells: heparinized human blood, peak integrals versus PBS control
Procedure: (§1) The stability of uPA-derived peptides in human serum or complete blood was assayed in vitro.
(§2) For stability studies in human complete blood, coagulation of venous blood was inhibited by heparin sodium (1 000 IU per 10 ml of complete blood), and the blood was used freshly. The peptides to be tested were added to the body fluids in the form of peptide-mixture stock solutions (≧1 μg per peptide in H2O) at a concentration of 5 μg/100 μl of serum or 200 μl of complete blood (per peptide) and incubated at 37° C. for various times. Prior to HPLC analysis, complete blood incubations were centrifuged at 16 000×g at room temperature for 5 min and the plasma in the supernatant was removed.
(§3) Sera and plasmas were prepurified via HLB precolumns (Waters GmbH, Oasis HLB extraction cartridge 1 cm^3/30 mg) prior to HPLC analysis. For this purpose, 100 μl of liquid were diluted with PBS to 1 ml and applied to said HLB precolumns equilibrated with 1 ml of 100% methanol and 1 ml of H2O. The columns were washed with 1ml of 5% methanol in H2O and eluted with 1 ml of 100% methanol. The first 200 μl (4 drops) of the eluate were discarded as void volume. The next 500 μl of eluate were diluted with 500 μl of PBS and analyzed by HPLC. The remaining 300 μl of the eluate were discarded. HPLC analysis was carried out using a YMC-5 C18 analytical column and a 20-60% gradient of H2O, 0.1% trifluoroacetic acid and acetonitrile, 0.1% trifluoroacetic acid over 30 min and detecting the analytes at 220 nm.
The stability in heparinized human blood (FIG. 4b) was studied by adding 750 μl of freshly prepared heparinized human blood to 37.5 μg of the peptides. Immediately thereafter, 375 μl were removed by centrifugation. 100 μl of the plasma supernatant were analyzed (middle profile). The remaining 375 μl were incubated with gentle agitation at 37° C. for 20.5 h and then analyzed (bottom profile). As a control, 5 μg of the peptides had already been admixed with 1 ml of PBS and analyzed (top profile).

[4] = Peptide stability in human serum (HPLC); format: in vitro ADME; conditions: 37° C., 20.5 h
Procedure: as §1
Human sera were prepared by allowing venous blood to coagulate without anti-coagulant in polypropylene tubes at 37° C. for 45 min. The clots adhering to the vessel wall were removed using a plastic stick and removed by centrifugation at 1200×g at room temperature for 12 min. The serum in the supernatant was removed and either used freshly for stability studies or frozen in aliquots at −20° C. for further use.
as §2
as §3, with “The remaining 300 μl of the eluate were discarded. HPLC analysis was carried out using a YMC-5 C18 analytical column and a 20-60% gradient of H2O, 0.1% trifluoroacetic acid and acetonitrile, 0.1% trifluoroacetic acid over 30 min and detecting the analytes at 220 nm.” left out
The stability of the peptides inhuman serum (FIG. 4a) was studied by adding a mixture of in each case 12.5 μg of the peptides to about 250 μl of serum. 100 μl thereof were diluted with PBS to 1 ml, prepurified on an HLB precolumn and analyzed immediately by HPLC (middle profile). A further 100 μl were analyzed after 20.5 h of incubation at 37° C. […] As a control, in each case 5 μg of the peptides were admixed with 1 ml of PBS and analyzed (top profile). […]

| stability against plasmin [1] | stability in heparinized human blood [3] | stability in human serum [4] | Molecule | other results |
| --- | --- | --- | --- | --- |
| plasmin-sensitive | – | – | CC[C@H](C)[C@@H]1NC(=O)[C@H](CC(N)=O)NC(=O)[C@H](CO)NC(=O)[C@H](Cc2ccccc2)NC(=O)[C@H](Cc2ccc(O)cc2)NC(=O)[C@H](CCCNC(=N)N)NC(=O)[C@H](CC(N)=O)NC(=O)[C@H](N)CSSC[C@@H](C(=O)N[C@@H](Cc2c[nH]c3ccccc23)C(=O)O)NC1=O [cyclo[21,29][D-Cys^21Arg^23Cys^29]-uPA21-30] (H-[dC]NRYFSNICW-OH; disulfide 1-9; N-terminus assumed) | – |
| – | – | – | CC[C@H](C)[C@@H]1NC(=O)[C@H](CC(N)=O)NC(=O)[C@H](CO)NC(=O)[C@H](Cc2ccccc2)NC(=O)[C@H](Cc2ccc(O)cc2)NC(=O)[C@H](CCCCN)NC(=O)[C@H](CC(N)=O)NC(=O)[C@@H](N)CSSC[C@@H](C(=O)N[C@@H](Cc2c[nH]c3ccccc23)C(=O)O)NC1=O [cyclo[21,29][Cys^21,29]-uPA21-30, reference compound] (H-CNKYFSNICW-OH; disulfide 1-9; N-terminus and C-terminus assumed) | IC50 [2]: 2260 nM; affinity/activity for uPAR lower than that of ATF [2]: hundred-fold lower |
| stable against plasmin | – | – | CC[C@H](C)[C@@H]1NC(=O)[C@H](CC(N)=O)NC(=O)[C@H](CO)NC(=O)[C@H](Cc2ccccc2)NC(=O)[C@H](Cc2ccc(O)cc2)NC(=O)[C@H](CCN)NC(=O)[C@H](CC(N)=O)NC(=O)[C@H](N)CSSC[C@@H](C(=O)N[C@@H](Cc2c[nH]c3ccccc23)C(=O)O)NC1=O [cyclo[21,29][D-Cys^21Dab^23Cys^29]-uPA21-30] (H-[dC]N[Dab]YFSNICW-OH; disulfide 1-9; N-terminus assumed) | – |
| a new unknown peak appeared | stable | unaltered | CC[C@H](C)[C@@H]1NC(=O)[C@H](CC(N)=O)NC(=O)[C@H](CO)NC(=O)[C@H](Cc2ccccc2)NC(=O)[C@H](Cc2ccc(O)cc2)NC(=O)[C@H](CCCCN)NC(=O)[C@H](CC(N)=O)NC(=O)[C@H](N)CSSC[C@@H](C(=O)N[C@@H](Cc2c[nH]c3ccccc23)C(=O)O)NC1=O [cyclo[21,29][D-Cys^21,Cys^29]uPA21-30] (H-[dC]NKYFSNICW-OH; disulfide 1-9; N-terminus and C-terminus assumed) | distribution between plasma and blood cells [3]: distributed mainly in the plasma; IC50 [2]: 78 nM; affinity/activity for uPAR lower than that of ATF [2]: 4 |
| two small unidentified peaks appeared | – | – | CC[C@H](C)[C@@H]1NC(=O)[C@H](CC(N)=O)NC(=O)[C@H](CO)NC(=O)[C@H](Cc2ccccc2)NC(=O)[C@H](Cc2ccc(O)cc2)NC(=O)[C@H](CN)NC(=O)[C@H](CC(N)=O)NC(=O)[C@H](N)CSSC[C@@H](C(=O)N[C@@H](Cc2c[nH]c3ccccc23)C(=O)O)NC1=O [cyclo[21,29][D-Cys^21Dap^23Cys^29]-uPA21-30] (H-[dC]N[Dap]YFSNICW-OH; disulfide 1-9; N-terminus assumed) | – |
| stable against plasmin | – | – | CCCC[C@@H]1NC(=O)[C@H](CC(N)=O)NC(=O)[C@H](N)CSSC[C@@H](C(=O)N[C@@H](Cc2c[nH]c3ccccc23)C(=O)O)NC(=O)[C@H]([C@@H](C)CC)NC(=O)[C@H](CC(N)=O)NC(=O)[C@H](CO)NC(=O)[C@H](Cc2ccccc2)NC(=O)[C@H](Cc2ccc(O)cc2)NC1=O [cyclo[21,29][D-Cys^21Nle^23Cys^29]-uPA21-30] (H-[dC]N[Nle]YFSNICW-OH; disulfide 1-9; N-terminus assumed) | – |
| – | instability | could no longer be detected | cyclo[19,31]-uPA16-32 [reference compound] | part of the amount of peptide added degraded ([3]; complete blood, 10-15 min between addition and prepurification): > 80% |
| – | stable | unaltered | CC[C@H](C)[C@@H]1NC(=O)[C@H](CC(N)=O)NC(=O)[C@H](CO)NC(=O)[C@@H]2Cc3ccccc3CN2C(=O)[C@H](Cc2ccc(O)cc2)NC(=O)[C@H](CCCCN)NC(=O)[C@H](CC(N)=O)NC(=O)[C@H](N)CSSC[C@@H](C(=O)N[C@@H](Cc2c[nH]c3ccccc23)C(=O)O)NC1=O [cyclo[21,29][D-Cys^21,Tic^25,Cys^29]-uPA21-30] (H-[dC]NKY[Tic]SNICW-OH; disulfide 1-9; N-terminus assumed) | distribution between plasma and blood cells [3]: distributed mainly in the plasma |
| stable against plasmin | – | – | CC[C@H](C)[C@@H]1NC(=O)[C@H](CC(N)=O)NC(=O)[C@H](CO)NC(=O)[C@H](Cc2ccccc2)NC(=O)[C@H](Cc2ccc(O)cc2)NC(=O)[C@H](CCCN)NC(=O)[C@H](CC(N)=O)NC(=O)[C@H](N)CSSC[C@@H](C(=O)N[C@@H](Cc2c[nH]c3ccccc23)C(=O)O)NC1=O [cyclo[21,29][D-Cys^21Orn^23Cys^29]-uPA21-30] (H-[dC]N[Orn]YFSNICW-OH; disulfide 1-9; N-terminus assumed) | – |
